Measured values as given in paper PMC5983452 (PLoS ONE, 2018).
Like-named read-outs stand apart in the source and are kept apart here.

Experiments:
SMYD2 [1] = molecular target: T1, SMYD2 (Homo sapiens, UniProt Q9NRG4); assay: Intracellular BTF3 monomethylation (BTF3me1) western blot; format: cell-based; set-up: endogenous in cells; host or cells: 313 cancer cell lines; details: read-out: Intracellular Methylation IC50
Procedure: Cells were lysed in 1X RIPA Buffer containing 10% SDS and Halt™ Protease Inhibitor Cocktail (Thermo Fisher Scientific) and incubated on ice for 30 minutes before sonication (Amplitude 20%/10sec) twice. Lysates were spun at […] at 4°C for 10min and normalized for protein concentration by BCA assay (Thermo Fisher Scientific). […] Blots were imaged using the Odyssey Imaging System (LICOR Biosciences). […] BTF3me1 is a custom generated polyclonal antibody, affinity purified from serum of rabbits injected with adjuvant conjugated peptide corresponding to methylated K1 of BTF3 (K(Me)-[…]).
SMYD2 catalyzes the methylation of lysine residues on several proteins, including BTF3 [40].

KYSE-150 = assay: Cell proliferation, KYSE-150; format: cell-based; details: Homo sapiens, read-out: Cellular Proliferation IC50
Procedure: (§1) Cell lines used in these experiments were obtained from the following sources and were cultured according to conditions specified by the respective cell banks. […] The cell lines listed above were tested for mycoplasma and were negative. Cells were authenticated by STR method or vendor protocols. All 313 cell lines in the CRIPSR pooled screen were purchased from commercial vendors and were STR authenticated and mycoplasma negative. A broad panel of cancer cell lines was screened in the Eurofins Oncopanel. All cells in this panel were mycoplasma negative and STR verified.
Thus, 5 compounds representing 4 distinct pharmacophore series of SMYD2 inhibitors are now available for testing the dependence of cancer lines on SMYD2 activity. […] In stark contrast, however, no correlation is seen between the potency for BTF3 methylation inhibition and anti-proliferative activity among these compounds (Fig 3B).

SMYD2 [2] = molecular target: T1, SMYD2; assay: SMYD2 biochemical methylation assay (3H-SAM, H3,1–29 peptide, flashplate); set-up: Full length FLAG-SMYD2 and C-terminally Avi-tagged full length SMYD2 (SMYD2-Avi) were cloned into pFastbac vectors; FLAG (N); His tag with TEV cleavage site (N, cleaved yes); made in house; host or cells: Sf9 insect cells (baculovirus)
Procedure: Full length FLAG-SMYD2 and C-terminally Avi-tagged full length SMYD2 (SMYD2-Avi) were cloned into pFastbac vectors containing an N-terminal His tag with TEV cleavage site. Virus production was performed using standard protocols and the proteins were coexpressed in either Sf9 (SMYD2) or Hi Five (SMYD2-Avi) cells. After harvest by centrifugation, cell pellets for both proteins were resuspended, sonicated, and then centrifuged to remove cell debris. Protein was purified using nickel affinity chromatography before and after TEV cleavage in a similar fashion as SMYD3. […] SMYD2-Avi was biotinylated using His-tagged BirA enzyme after dialysis into a low salt buffer and the BirA was removed with a final nickel affinity column. […] SMYD3 assays were performed as previously described using N-terminally GST-tagged MAP3K2 protein substrate. […] Reactions were conducted at room temperature with enzyme and inhibitor incubated for 30 minutes before initiating the reaction with substrates. Dose-response curves were tested in duplicate in each experiment. […] Quenched reactions were transferred to a streptavidin-coated flashplate (Perkin Elmer) for capture of the biotinylated peptide. After 2 h incubation at room temperature, the flashplate was washed once with 0.1% Tween-20 and read on a Perkin Elmer Topcount NXT plate reader. Substrate apparent KM values were determined by measuring the initial velocities (v0) in duplicate while varying one substrate at fixed concentration of the second substrate. […] Percent inhibition by compound (% inh) was calculated from Eq 3 %inh=(1-([…] the signal in the presence of compound and max and min are the signals for the DMSO and background controls respectively. […] Mechanism of inhibition was determined by measuring the inhibitor IC50 values while varying the concentration of one substrate at a fixed concentration of the second substrate equal to its KM value. The inhibition constant Ki was calculated from fitting the IC50 versus varied substrate concentration data using the Cheng-Prusoff equations for mixed-type and noncompetitive inhibition below. α is the coefficient accounting for differences in inhibitor affinity between binding enzyme forms after versus before substrate binding.

[3] = tested on: cell lines found to be sensitive to LLY-507; details: cited from earlier work
SMYD3 [4] = molecular target: T2, SMYD3 (Homo sapiens, UniProt Q9H7B4); details: read-out: Kd for binding to SMYD3; cited from earlier work
T2 sequence (Q9H7B4 1-428): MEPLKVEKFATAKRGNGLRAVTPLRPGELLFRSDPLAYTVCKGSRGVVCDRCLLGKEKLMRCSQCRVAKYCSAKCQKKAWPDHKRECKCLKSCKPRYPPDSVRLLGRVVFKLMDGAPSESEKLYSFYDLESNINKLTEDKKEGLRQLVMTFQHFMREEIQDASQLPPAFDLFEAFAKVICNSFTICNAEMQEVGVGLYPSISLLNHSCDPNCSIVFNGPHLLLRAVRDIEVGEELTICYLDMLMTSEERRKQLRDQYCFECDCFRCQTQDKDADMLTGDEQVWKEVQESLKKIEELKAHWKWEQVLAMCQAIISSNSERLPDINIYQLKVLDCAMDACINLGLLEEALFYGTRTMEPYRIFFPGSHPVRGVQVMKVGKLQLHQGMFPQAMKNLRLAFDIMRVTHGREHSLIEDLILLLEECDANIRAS

several cell lines = details: cited from earlier work
SMYD3 [5] = molecular target: T2, SMYD3; set-up: Protein purification of both isoforms of full length SMYD3 was performed as previously reported; made in house; method as in Mitchell et al (2016); details: read-out: Biochemical IC50, ref Mitchell et al (2016); cited from earlier work
SMYD3 [6] = molecular target: T2, SMYD3; set-up: endogenous in cells; host or cells: 313 cancer cell lines; method as in Mitchell et al (2016); details: read-out: Intracellular Methylation IC50; MAP3K2 methylation; ref Mitchell et al (2016); cited from earlier work
SMYD3 [7] = molecular target: T2, SMYD3; assay: SMYD3 biochemical methylation assay (3H-SAM, GST-MAP3K2/MEKK2 substrate); set-up: Protein purification of both isoforms of full length SMYD3 was performed as previously reported; made in house; details: tested in duplicate; read-out: selectivity panel result, SMYD3 (off-target)
Procedure: SMYD3 assays were performed as previously described using N-terminally GST-tagged MAP3K2 protein substrate. […] Reactions were conducted at room temperature with enzyme and inhibitor incubated for 30 minutes before initiating the reaction with substrates. Dose-response curves were tested in duplicate in each experiment. […] Quenched reactions were transferred to a streptavidin-coated flashplate (Perkin Elmer) for capture of the biotinylated peptide. After 2 h incubation at room temperature, the flashplate was washed once with 0.1% Tween-20 and read on a Perkin Elmer Topcount NXT plate reader. Substrate apparent KM values were determined by measuring the initial velocities (v0) in duplicate while varying one substrate at fixed concentration of the second substrate.
Mechanism of inhibition was determined by measuring the inhibitor IC50 values while varying the concentration of one substrate at a fixed concentration of the second substrate equal to its KM value.

[8] = tested on: panel of 240 cancer cell lines; assay: Proliferation in a broad panel of 240 cancer cell lines, 2D culture (Eurofins Panlabs Oncopanel); format: cell-based; details: for IC50: read-out: anti-proliferative IC50 across the panel of 240 cancer cell lines, 2D culture
Procedure: as §1

several enzymes = tested on: several enzymes; set-up: method as in http://www.chemicalprobes.org; details: ref http://www.chemicalprobes.org; cited from earlier work
SMYD2 [9] = molecular target: T1, SMYD2; details: read-out: apparent SAM KM (reported); p53 peptide substrate, pH 9.0; 2 (supplemental references); cited from earlier work
[10] = SMYD2, 20 nM SAM, 60 nM H3,1–29 peptide, read-out: Biochemical IC50

T1 sequence (Q9NRG4 whole entry): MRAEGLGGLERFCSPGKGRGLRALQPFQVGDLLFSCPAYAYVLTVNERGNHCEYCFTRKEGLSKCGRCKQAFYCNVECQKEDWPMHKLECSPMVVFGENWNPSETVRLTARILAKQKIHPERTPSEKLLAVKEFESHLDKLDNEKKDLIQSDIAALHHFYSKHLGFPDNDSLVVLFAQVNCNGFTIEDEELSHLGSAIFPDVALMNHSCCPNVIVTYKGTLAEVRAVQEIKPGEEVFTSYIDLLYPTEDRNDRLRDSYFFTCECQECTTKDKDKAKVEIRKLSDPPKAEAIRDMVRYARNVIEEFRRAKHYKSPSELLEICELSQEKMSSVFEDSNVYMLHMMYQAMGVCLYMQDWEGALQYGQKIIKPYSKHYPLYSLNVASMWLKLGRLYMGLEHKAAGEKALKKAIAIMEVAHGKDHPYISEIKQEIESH

Work on O=C1COc2c(CCNCCN(C(=O)CCNCCc3ccc(Cl)c(Cl)c3)C3CCCCC3)ccc(O)c2N1 [AZ505, reference compound] yielded an IC50 (SMYD2 [1]) of 13.9 µM, an IC50 (KYSE-150) of 12.8 µM and an IC50 (SMYD2 [2]; [10]) of 51 nM.

In the case of CCN(C(=O)CO)[C@H]1CN(/C(=N\C#N)Nc2cccc(OC(F)F)c2)N=C1c1ccc(Cl)c(Cl)c1 [BAY-598], the “impact on cell proliferation or induction of apoptosis” value ([3]; cell lines found to be sensitive to LLY-507) is listed as “little impact” and the IC50 ([3]; ref Eggert et al (2016), read-out: Cellular Proliferation IC50) is listed as over 20 µM.

In the case of NC(=O)C1CCN(CC(=O)Nc2ccc(Br)cc2)CC1 [BCI-121], the Kd (SMYD3 [4]) is listed as 11.8 µM, the “inhibition of proliferation of several cell lines” value (several cell lines; at 100 µM) is listed as 20–30% and the IC50 (several cell lines; ref Peserico et al (2015), read-out: Cellular Proliferation IC50) is listed as over 100 µM.

In the case of O=C1Cc2cc(C(=O)NC3CC4CCC(C3)N4S(=O)(=O)CC3CCN(CCCC(F)(F)F)CC3)c(Cl)cc2N1 (stereo not shown) [EPZ031686], the IC50 (SMYD3 [5]) is given as 3 nM and the IC50 (SMYD3 [6]) is given as 36 nM.

In the case of O=C(NC1CN(Cc2cnn(Cc3ccccc3)c2)C1)c1cn(C2CC2)nn1 [EPZ032597], the IC50 (SMYD3 [7]) is reported as over 10 µM, the IC50 (SMYD2 [1]) is reported as 0.031 µM and the “growth inhibition on repeat testing of hematologic cancer cell lines” value ([8]; cell lines with lower IC50 in the initial screen) is reported as under 50%. The IC50 [8] was over 10 µM, the IC50 (KYSE-150) was over 40 µM and the “mechanism of inhibition with respect to peptide substrate” value (SMYD2 [2]; 1 nM enzyme, 20 nM SAM, varied H3,1–29) was “noncompetitive”. It also gave an IC50 (SMYD2 [2]; IC50 at 20 nM SAM, 1 nM SMYD2, 60 nM H3,1-29, 20 nM SAM) of 21 ± 2 nM, an IC50 (SMYD2 [2]; IC50 at 200 nM SAM, 1 nM SMYD2, 60 nM H3,1-29, 200 nM SAM) of 25 ± 5 nM and an IC50 (SMYD2 [2]; [10]) of 16 nM. It also gave a Ki (SMYD2 [2]; varied H3,1–29 peptide, Eq 6, read-out: Ki (noncompetitive versus peptide)) of 21.5 ± 1.5 nM.

In the case of Cc1cn(CCN2CCN(c3ccccc3-c3cc(C#N)cc(C(=O)NCCCN4CCCC4)c3)CC2)c2ccccc12 [LLY-507, reference compound], the IC50 [8] is given as 1 to 5 µM, the IC50 (KYSE-150) is given as 1.8 µM and the “inhibition of several enzymes (off-target potency)” value (several enzymes) is given as under 1 µM.

For C[S+](CC[C@H](N)C(=O)[O-])C[C@H]1O[C@@H](n2cnc3c(N)ncnc32)[C@H](O)[C@@H]1O (stereo partly drawn) [SAM, S-(5’adenosyl)-L-methionine], the Km (SMYD2 [2]; 1 nM SMYD2, 60 nM H3,1–29, Eq 2, upper limit for the true KM, read-out: apparent KM for SAM) is listed as 0.34 ± 0.07 nM and the Km (SMYD2 [9]) is listed as 30 to 60 nM.
